Peptide text beside a SMILES is read from it.
assay: Thermal denaturation of trimeric coiled coil peptides by CD thermal scan (signal at 222 nm versus temperature, curve fitting); type: physicochemical; details: core mutants at positions 3a and 3d of the reference peptide with glutamine at 2a; Figure 9
Protocol: The said synthesized peptide was dissolved at a concentration of 292 microM in 20 mM phosphate buffer (PBS), 150 mM NaCl, pH 7.2. The CD spectra were measured between […], at 5 and 90 degrees Celsius (Figure 3). The spectrum at 5 degrees Celsius was indicative of a high alpha-helical secondary structure content, in agreement with the expectation that all heptad regions, but not all of the flanking residues, would assemble as alpha-helical coiled coils.
To analyse whether the temperature-induced transition between helical and nonhelical states was reversible, a forward (up) and backward (down) thermal scan was performed on the same sample, by recording the CD signal at […] as a function of temperature at a scanning rate of about 1 degree Celsius per minute (Figure 4). It was observed that the up and down scans almost perfectly coincided, thereby confirming the quantitative unfolding and refolding of the peptides in the sample.
It was further analyzed whether the thermal unfolding curve of Figure 4 conformed to the thermodynamic equations describing the equilibrium folding/unfolding reaction between three molecules free (monomeric) peptide and one entity of folded (trimeric) complex. This reaction is generally written as 3 peptide <=> peptide3 wherein "<=>" refers to a chemical equilibrium, "peptide" to a monomeric peptide in solution and "peptide3" to a trimeric entity in the folded (assembled, associated) state. This thermal unfolding curve was fitted to the theoretic equations: θ(T) = θM (T) + (θT(T)-θM(T))(1+root(F(-(1)/(2)+sqrt((1)/(4) + (F)/(27))), 3)+root(F(-(1)/(2)-sqrt((1)/(4) + (F)/(27))), 3)) [formula] wherein F = (exp(-(ΔHt)/(RT)(1-T/T1)-(ΔCp)/(RT)(T-Tt-Tln(T/Tt))))/(4) [formula] and T≡ the temperature, in degrees Kelvin, of the sample θ(T)≡ the CD-signal [theta]222 nm, in deg cm^2 dmol^-1, as a function of T θM(T)≡ the CD-signal for 100% free (monomeric) peptide as a function of T θT(T) ≡ the CD-signal for 100% associated (trimeric) peptide as a function of T Tt ≡ the transition temperature, where 50% of the total peptide concentration is associated ΔHt ≡ the enthalpy difference, in kJ per mole peptide, between mono- and trimeric states ΔCp ≡ the heat capacity difference, in J mol^-1 K^-1, between mono- and trimeric states R ≡ the ideal (universal) gas constant ≡ 8.31 J mol^-1 K^-1
The global CD signal was somewhat lower than expected, which could be due to an instrumental deviation, an error in the concentration determination, a lower purity, or a lower than expected alpha-helical content. Nevertheless, the main goal of this experiment was to examine the effect of the glutamine-to-isoleucine mutant on the stability of the complex. […] The estimated transition temperature was around 97 degrees Celsius, although the latter was difficult to determine because of incompleteness of the transition.
All ten peptides were analyzed by thermal CD scanning as in Examples 3 and 4. Fitting of the thermal denaturation curves, as described in Example 3, gave the corresponding transition temperatures shown in Figure 9. […]

SMILES | effect of core substitution on stability (transition temperature) compared to the reference peptide comprising isoleucine at positions 3a and 3d
CC[C@H](C)[C@H](NC(=O)[C@H](C)NC(=O)[C@H](C)NC(=O)[C@H](CCC(N)=O)NC(=O)[C@H](CCC(N)=O)NC(=O)[C@H](CCCCN)NC(=O)[C@H](CCC(N)=O)NC(=O)[C@@H](NC(=O)[C@H](CCC(=O)O)NC(=O)[C@H](CCC(=O)O)NC(=O)[C@@H](NC(=O)[C@H](CO)NC(=O)[C@H](CCSC)NC(C)=O)[C@@H](C)CC)[C@@H](C)CC)C(=O)N[C@@H](CCC(N)=O)C(=O)N[C@@H](CCCCN)C(=O)N[C@@H](CCC(N)=O)C(=O)N[C@@H](C)C(=O)N[C@@H](C)C(=O)N[C@@H](C)C(=O)N[C@H](C(=O)N[C@@H](CCC(N)=O)C(=O)N[C@@H](CCCCN)C(=O)N[C@@H](CCC(N)=O)C(=O)N[C@H](C(=O)N[C@@H](Cc1ccc(O)cc1)C(=O)N[C@@H](CCCNC(=N)N)C(=O)N[C@@H](CCSC)C(=O)N[C@H](C(=O)N1CCC[C@H]1C(N)=O)[C@@H](C)O)[C@@H](C)CC)[C@@H](C)CC [3aA] (Ac-MSIEEIQKQQAAIQKQAAAIQKQIYRMTP-NH2) | disruptive
CC[C@H](C)[C@H](NC(=O)[C@H](C)NC(=O)[C@H](C)NC(=O)[C@H](CCC(N)=O)NC(=O)[C@H](CCC(N)=O)NC(=O)[C@H](CCCCN)NC(=O)[C@H](CCC(N)=O)NC(=O)[C@@H](NC(=O)[C@H](CCC(=O)O)NC(=O)[C@H](CCC(=O)O)NC(=O)[C@@H](NC(=O)[C@H](CO)NC(=O)[C@H](CCSC)NC(C)=O)[C@@H](C)CC)[C@@H](C)CC)C(=O)N[C@@H](CCC(N)=O)C(=O)N[C@@H](CCCCN)C(=O)N[C@@H](CCC(N)=O)C(=O)N[C@@H](CO)C(=O)N[C@@H](C)C(=O)N[C@@H](C)C(=O)N[C@H](C(=O)N[C@@H](CCC(N)=O)C(=O)N[C@@H](CCCCN)C(=O)N[C@@H](CCC(N)=O)C(=O)N[C@H](C(=O)N[C@@H](Cc1ccc(O)cc1)C(=O)N[C@@H](CCCNC(=N)N)C(=O)N[C@@H](CCSC)C(=O)N[C@H](C(=O)N1CCC[C@H]1C(N)=O)[C@@H](C)O)[C@@H](C)CC)[C@@H](C)CC [3aS] (Ac-MSIEEIQKQQAAIQKQSAAIQKQIYRMTP-NH2) | disruptive
CC[C@H](C)[C@H](NC(=O)[C@H](C)NC(=O)[C@H](C)NC(=O)[C@H](CCC(N)=O)NC(=O)[C@H](CCC(N)=O)NC(=O)[C@H](CCCCN)NC(=O)[C@H](CCC(N)=O)NC(=O)[C@@H](NC(=O)[C@H](CCC(=O)O)NC(=O)[C@H](CCC(=O)O)NC(=O)[C@@H](NC(=O)[C@H](CO)NC(=O)[C@H](CCSC)NC(C)=O)[C@@H](C)CC)[C@@H](C)CC)C(=O)N[C@@H](CCC(N)=O)C(=O)N[C@@H](CCCCN)C(=O)N[C@@H](CCC(N)=O)C(=O)N[C@@H](CC(C)C)C(=O)N[C@@H](C)C(=O)N[C@@H](C)C(=O)N[C@H](C(=O)N[C@@H](CCC(N)=O)C(=O)N[C@@H](CCCCN)C(=O)N[C@@H](CCC(N)=O)C(=O)N[C@H](C(=O)N[C@@H](Cc1ccc(O)cc1)C(=O)N[C@@H](CCCNC(=N)N)C(=O)N[C@@H](CCSC)C(=O)N[C@H](C(=O)N1CCC[C@H]1C(N)=O)[C@@H](C)O)[C@@H](C)CC)[C@@H](C)CC [3aL] (Ac-MSIEEIQKQQAAIQKQLAAIQKQIYRMTP-NH2) | slightly stabilizing effect
CC[C@H](C)[C@H](NC(=O)[C@H](C)NC(=O)[C@H](C)NC(=O)[C@H](CCC(N)=O)NC(=O)[C@H](CCC(N)=O)NC(=O)[C@H](CCCCN)NC(=O)[C@H](CCC(N)=O)NC(=O)[C@@H](NC(=O)[C@H](CCC(=O)O)NC(=O)[C@H](CCC(=O)O)NC(=O)[C@@H](NC(=O)[C@H](CO)NC(=O)[C@H](CCSC)NC(C)=O)[C@@H](C)CC)[C@@H](C)CC)C(=O)N[C@@H](CCC(N)=O)C(=O)N[C@@H](CCCCN)C(=O)N[C@@H](CCC(N)=O)C(=O)N[C@H](C(=O)N[C@@H](C)C(=O)N[C@@H](C)C(=O)N[C@@H](CC(C)C)C(=O)N[C@@H](CCC(N)=O)C(=O)N[C@@H](CCCCN)C(=O)N[C@@H](CCC(N)=O)C(=O)N[C@H](C(=O)N[C@@H](Cc1ccc(O)cc1)C(=O)N[C@@H](CCCNC(=N)N)C(=O)N[C@@H](CCSC)C(=O)N[C@H](C(=O)N1CCC[C@H]1C(N)=O)[C@@H](C)O)[C@@H](C)CC)[C@@H](C)CC [3dL] (Ac-MSIEEIQKQQAAIQKQIAALQKQIYRMTP-NH2) | slightly stabilizing effect

More lines, now with the values ahead:

effect of core substitution on stability (transition temperature) compared to the reference peptide comprising isoleucine at positions 3a and 3d | SMILES
disruptive | CC[C@H](C)[C@H](NC(=O)[C@H](C)NC(=O)[C@H](C)NC(=O)[C@H](CCC(N)=O)NC(=O)[C@H](CCC(N)=O)NC(=O)[C@H](CCCCN)NC(=O)[C@H](CCC(N)=O)NC(=O)[C@@H](NC(=O)[C@H](CCC(=O)O)NC(=O)[C@H](CCC(=O)O)NC(=O)[C@@H](NC(=O)[C@H](CO)NC(=O)[C@H](CCSC)NC(C)=O)[C@@H](C)CC)[C@@H](C)CC)C(=O)N[C@@H](CCC(N)=O)C(=O)N[C@@H](CCCCN)C(=O)N[C@@H](CCC(N)=O)C(=O)N[C@H](C(=O)N[C@@H](C)C(=O)N[C@@H](C)C(=O)N[C@@H](CO)C(=O)N[C@@H](CCC(N)=O)C(=O)N[C@@H](CCCCN)C(=O)N[C@@H](CCC(N)=O)C(=O)N[C@H](C(=O)N[C@@H](Cc1ccc(O)cc1)C(=O)N[C@@H](CCCNC(=N)N)C(=O)N[C@@H](CCSC)C(=O)N[C@H](C(=O)N1CCC[C@H]1C(N)=O)[C@@H](C)O)[C@@H](C)CC)[C@@H](C)CC [3dS] (Ac-MSIEEIQKQQAAIQKQIAASQKQIYRMTP-NH2)
relatively strong | CC[C@H](C)[C@H](NC(=O)[C@H](C)NC(=O)[C@H](C)NC(=O)[C@H](CCC(N)=O)NC(=O)[C@H](CCC(N)=O)NC(=O)[C@H](CCCCN)NC(=O)[C@H](CCC(N)=O)NC(=O)[C@@H](NC(=O)[C@H](CCC(=O)O)NC(=O)[C@H](CCC(=O)O)NC(=O)[C@@H](NC(=O)[C@H](CO)NC(=O)[C@H](CCSC)NC(C)=O)[C@@H](C)CC)[C@@H](C)CC)C(=O)N[C@@H](CCC(N)=O)C(=O)N[C@@H](CCCCN)C(=O)N[C@@H](CCC(N)=O)C(=O)N[C@@H](CCC(N)=O)C(=O)N[C@@H](C)C(=O)N[C@@H](C)C(=O)N[C@H](C(=O)N[C@@H](CCC(N)=O)C(=O)N[C@@H](CCCCN)C(=O)N[C@@H](CCC(N)=O)C(=O)N[C@H](C(=O)N[C@@H](Cc1ccc(O)cc1)C(=O)N[C@@H](CCCNC(=N)N)C(=O)N[C@@H](CCSC)C(=O)N[C@H](C(=O)N1CCC[C@H]1C(N)=O)[C@@H](C)O)[C@@H](C)CC)[C@@H](C)CC [3aQ] (Ac-MSIEEIQKQQAAIQKQQAAIQKQIYRMTP-NH2)
